Source: the NIST ThermoML archive (doi:10.1021/je9002306)

Assays:
[1] = mn = molality of the nth substance listed, in mol/kg; conditions: 298.15 K, 101.3 kPa, Liquid, Vibrating tube method
[2] = cn = amount concentration of the nth substance listed, in mol/dm3; conditions: 298.15 K, 101.3 kPa, Liquid, Wayne-Kerr 6430B Auto Balance Bridge

C[S+](C)[O-] [dimethyl sulfoxide] + CCCCCCCCCCn1cc[n+](C)c1.[Br-]
Conditions | mass density [kg/m3]
[1], m2 = 0 | 1095.33

CN(C)C=O [dimethylformamide] + CCCCCCCCCCCCn1cc[n+](C)c1.[Br-]
Conditions | mass density [kg/m3]
[1], m2 = 0 | 944.305

CCCCCCCCn1cc[n+](C)c1.[Br-] [1-methyl-3-octylimidazolium bromide] + OCCO
Conditions | mass density [kg/m3] | molar conductivity [S·m2/mol]
[1], m1 = 0.006765 | 1110.04 | –
[1], m1 = 0.007869 | 1110.06 | –
[1], m1 = 0.01325 | 1110.12 | –
[1], m1 = 0.0167 | 1110.22 | –
[1], m1 = 0.02074 | 1110.25 | –
[1], m1 = 0.02364 | 1110.34 | –
[1], m1 = 0.03075 | 1110.39 | –
[1], m1 = 0.03492 | 1110.42 | –
[1], m1 = 0.03798 | 1110.48 | –
[2], c1 = 0.0003384 | – | 0.000678
[2], c1 = 0.0004129 | – | 0.000677
[2], c1 = 0.0004841 | – | 0.000675
[2], c1 = 0.0005608 | – | 0.000674
[2], c1 = 0.0006367 | – | 0.000673
[2], c1 = 0.0007095 | – | 0.000672
[2], c1 = 0.0007842 | – | 0.000671
[2], c1 = 0.0008592 | – | 0.00067
[2], c1 = 0.0009615 | – | 0.000669
[2], c1 = 0.001054 | – | 0.000668

CCCCCCCCn1cc[n+](C)c1.[Br-] [1-methyl-3-octylimidazolium bromide] + CN(C)C=O
Conditions | mass density [kg/m3] | molar conductivity [S·m2/mol]
[1], m1 = 0.0036 | 944.562 | –
[1], m1 = 0.00742 | 944.824 | –
[1], m1 = 0.01114 | 945.075 | –
[1], m1 = 0.01485 | 945.316 | –
[1], m1 = 0.01862 | 945.557 | –
[1], m1 = 0.02243 | 945.792 | –
[1], m1 = 0.02634 | 946.03 | –
[1], m1 = 0.03009 | 946.26 | –
[1], m1 = 0.03685 | 946.653 | –
[1], m1 = 0.04079 | 946.877 | –
[2], c1 = 0.0002813 | – | 0.007841
[2], c1 = 0.0003412 | – | 0.007808
[2], c1 = 0.0003997 | – | 0.007775
[2], c1 = 0.0004885 | – | 0.007732
[2], c1 = 0.0005571 | – | 0.0077
[2], c1 = 0.0006412 | – | 0.007663
[2], c1 = 0.0007099 | – | 0.007638
[2], c1 = 0.0007743 | – | 0.007612
[2], c1 = 0.000834 | – | 0.00759
[2], c1 = 0.0008925 | – | 0.007568

CCCCCCCCCCCCn1cc[n+](C)c1.[Br-] [1-dodecyl-3-methylimidazolium bromide] + CN(C)C=O
Conditions | mass density [kg/m3] | molar conductivity [S·m2/mol]
[1], m1 = 0.003861 | 944.545 | –
[1], m1 = 0.008055 | 944.798 | –
[1], m1 = 0.0123 | 945.047 | –
[1], m1 = 0.01627 | 945.277 | –
[1], m1 = 0.02032 | 945.508 | –
[1], m1 = 0.02446 | 945.745 | –
[1], m1 = 0.02703 | 945.89 | –
[1], m1 = 0.03337 | 946.237 | –
[1], m1 = 0.03725 | 946.45 | –
[1], m1 = 0.04099 | 946.651 | –
[2], c1 = 0.0001357 | – | 0.007691
[2], c1 = 0.0001826 | – | 0.007656
[2], c1 = 0.0002263 | – | 0.007631
[2], c1 = 0.0002718 | – | 0.007605
[2], c1 = 0.0003169 | – | 0.007581
[2], c1 = 0.0003578 | – | 0.007564
[2], c1 = 0.0004043 | – | 0.007541
[2], c1 = 0.0004399 | – | 0.007527
[2], c1 = 0.0004725 | – | 0.00751
[2], c1 = 0.0005219 | – | 0.007494

CCCCCCCCCCn1cc[n+](C)c1.[Br-] [1-decyl-3-methylimidazolium bromide] + OCCO
Conditions | mass density [kg/m3] | molar conductivity [S·m2/mol]
[1], m1 = 0.005851 | 1109.99 | –
[1], m1 = 0.0106 | 1110 | –
[1], m1 = 0.01551 | 1110 | –
[1], m1 = 0.01977 | 1110.01 | –
[1], m1 = 0.02479 | 1110.01 | –
[1], m1 = 0.02646 | 1110.02 | –
[1], m1 = 0.03544 | 1110.02 | –
[1], m1 = 0.03722 | 1110.02 | –
[1], m1 = 0.04453 | 1110.03 | –
[2], c1 = 0.0003546 | – | 0.000667
[2], c1 = 0.0004359 | – | 0.000666
[2], c1 = 0.0005147 | – | 0.000664
[2], c1 = 0.0005865 | – | 0.000663
[2], c1 = 0.0006739 | – | 0.000661
[2], c1 = 0.0007633 | – | 0.00066
[2], c1 = 0.0008415 | – | 0.000659
[2], c1 = 0.0009056 | – | 0.000658
[2], c1 = 0.0009847 | – | 0.000657
[2], c1 = 0.001065 | – | 0.000656

CN(C)C=O [dimethylformamide] + CCCCCCCCCCn1cc[n+](C)c1.[Br-]
Conditions | mass density [kg/m3]
[1], m2 = 0 | 944.305

C[S+](C)[O-] [dimethyl sulfoxide] + CCCCCCCCn1cc[n+](C)c1.[Br-]
Conditions | mass density [kg/m3]
[1], m2 = 0 | 1095.33
